In US20130283403A1, “ZEBRAFISH SEIZURE MODEL, METHOD FOR ES[…] SAME, AND METHOD FOR SCREENING ANT[…] USING THE SAME” (NATIONAL CHENG KUNG UNIVERSITY, priority 2012, published 2013):

What was measured:
[1] = tested on: ginkgotoxin-induced zebrafish seizure model; assay: Screening for drugs using the ginkgotoxin-induced zebrafish seizure model; assay type: in vivo, zebrafish (Dania rerio, AB strain); details: for rescuing effect: zebrafish at six hours post fertilization treated for 3 days, FIGS. 4A and 4B
Description: (§1) A solution of the ginkgotoxin is stored below −20° C. The ginkgotoxin concentrate of 40 mM is added to a fish water to keep the concentrations between 0.2 mM and 1 mM while the zebrafish seizure model is induced. The zebrafish is incubated in the fish water without ginkgotoxin for the control group.
(§2) Pyridoxal-5′-phosphate and GABA stock solution of 40 mM are used when measuring the response of zebrafish embryos seizure model with respect to effects of ant-convulsant drugs. Anticonvulsant drugs, such as gabapentin, phenyloin, and primidone, are dissolved in DMSO to make 100 mM concentration. During experiments, anticonvulsant drugs and ginkgotoxin are added to the fish water simultaneously, or the anticonvulsant drugs are added to the fish water three hours before the zebrafish behaviors are recorded and analyzed. This will be described in detail in the following.
(§3) The swimming behavior of zebrafish were was observed directly by naked eyes to determine the test results, and a quantified standard is made by a swimming distance and velocity of the zebrafish. At least 10 zebrafish were used for each group.
(§4) Besides, the zebrafish embryos are placed in 200 μl fish water in a concave on microscope slide. Herein, the zebrafish embryos are observed and recorded under a high-resolution dissecting microscope (Panasonic Digital video camera, DMC-FX55GT). Further, each condition, such as the swimming distance and velocity, of zebrafish are analyzed and quantified by a locomotion tracking system (EthoVision XT8.0 locomotion tracking system® (Noldus Information Technology, Inc., Leesburg, Va., USA)). The zebrafish is incubated in the fish water without ginkgotoxin for the control group.
Herein, GABA, PLP, gabapentin and phenyloin are used to perform experiments. The zebrafish embryos are incubated in fish water without ginkgotoxin represented as a “control group”; the zebrafish embryos are treated with ginkgotoxin represented as “GT”; the zebrafish embryos are treated simultaneously with ginkgotoxin and PLP of 0.5 mM represented as “GT+PLP”; the zebrafish embryos are treated simultaneously with ginkgotoxin and GABA of 0.5 mM represented as “GT+GABA”; the zebrafish embryos are treated simultaneously with ginkgotoxin and gabapentin of 1 mM represented as “GT+gabapentin”; the zebrafish embryos are treated simultaneously with ginkgotoxin and phenyloin of 1 mM represented as “GT+phenyloin”. The results are shown in FIGS. 2A to 4B, wherein, FIG. 2A and FIG. 2B are results showing that zebrafish at 3 days post fertilization of the example are treated for 2 hours; FIG. 3A and FIG. 3B are results showing that zebrafish at 5 days post fertilization of the example are treated for 2 hours; FIG. 4A and FIG. 4B are results that zebrafish at 6 hours post fertilization of the example were treated for 3 days. These indicate aggrevated seizure and convulsion when the swimming distance is longer and swimming velocity is faster transitorily.
Here, a comparison between the zebrafish seizure model induced by PTZ and one induced by ginkgotoxin is drawn. Wherein, the zebrafish embryos incubated in fish water without ginkgotoxin represented as a “control group”; the zebrafish embryos only treated with ginkgotoxin represented as “GT”; the zebrafish embryos treated only with PTZ of 0.5 mM represented as “PTZ”; the zebrafish embryos treated simultaneously with ginkgotoxin and DMSO represented as “GT+DMSO”; the zebrafish embryos treated simultaneously with PTZ and DMSO represented as “PTZ+DMSO”; the zebrafish embryos treated simultaneously with ginkgotoxin and gabapentin of 2 mM represented as “GT+gabapentin”; the zebrafish embryos treated simultaneously with PTZ and phenyloin of 2 mM represented as “PTZ+phenyloin”; the zebrafish embryos treated simultaneously with GT and folic acid of 1 mM represented as […]; the zebrafish embryos treated simultaneously with PTZ and folic acid of 1 mM is indicated as “PTZ+folic acid”. […]

[2] = tested on: PTZ-induced zebrafish seizure model; assay: Zebrafish seizure model induced by PTZ; assay type: in vivo, zebrafish (Dania rerio, AB strain); details: model induced by PTZ 0.5 mM, FIGS. 5A and 5B
Description: as §2, §3
Besides, the zebrafish embryos are placed in 200 μl fish water in a concave on microscope slide. Herein, the zebrafish embryos are observed and recorded under a high-resolution dissecting microscope (Panasonic Digital video camera, DMC-FX55GT). Further, each condition, such as the swimming distance and velocity, of zebrafish are analyzed and quantified by a locomotion tracking system (EthoVision XT8.0 locomotion tracking system® (Noldus Information Technology, Inc., Leesburg, Va., USA)). The zebrafish is incubated in the fish water without ginkgotoxin for the control group. […]

[3] = tested on: PTZ-induced zebrafish seizure model; details: current experimental data; cited from earlier work
zebrafish larvae = assay: Establishing the zebrafish seizure model with ginkgotoxin; assay type: in vivo, zebrafish (Dania rerio, AB strain)
Description: as §1, §3, §4
To induce seizures, the zebrafish larvae at 5 days post fertilization (5-dpf) are placed in fish water containing ginkgotoxin of various concentrations (0.2 mM to 1 mM) and ecorded and analyzed 2 hours later. […]

[4] = 0.5 mM added simultaneously with ginkgotoxin 0.5 mM, FIGS. 2A to 4B
[5] = 1 mM added simultaneously with ginkgotoxin 0.5 mM, regardless of embryonic stage, FIGS. 2A to 4B

Compound	conditions of seizure and convulsion (swimming distance and velocity) [1, 4]	rescuing effect ([1]; 0.5 mM with ginkgotoxin)	conditions of seizure and convulsion (swimming distance and velocity) [1, 5]	rescuing effect ([1]; 1 mM with ginkgotoxin)	also measured
CCC1(c2ccccc2)C(=O)NCNC1=O [primidone]	–	–	–	–	detection as antiepileptic or anti-convulsion drug (seizure stage 0/I/II) ([1]; model induced by ginkgotoxin, FIGS. 5A and 5B): enable to screen out; detection as antiepileptic or anti-convulsion drug (seizure stage 0/I/II) [2]: could not be accomplished; response of the PTZ-induced seizure model to the drug [3]: does not respond
NCCCC(=O)O [GABA, gamma-aminobutyric acid]	alleviated with a greater extent	most obvious signs of rescuing effect	–	–	–
COCc1c(CO)cnc(C)c1O [ginkgotoxin, 4-O-methylpyridoxine]	–	–	–	–	lower dose at which the zebrafish seizure model can be established (zebrafish larvae; 5-dpf larvae, after incubating for 2 hours, FIG. 1B): 0.2 mM; concentration at which the zebrafish seizure model can be established steadily (zebrafish larvae; zebrafish larvae at 5 days post fertilization, in fish water, FIGS. 1A and 1B): 500 µM; state of zebrafish treated with ginkgotoxin (swimming distance and velocity) ([1]; 0.5 mM, 3 dpf or 5 dpf treated 2 hours, 6 hpf treated 3 days, FIGS. 2A to 4B): states of seizure or convulsion
NCC1(CC(=O)O)CCCCC1 [gabapentin]	–	–	alleviated with greater extent	most obvious signs of rescuing effect	–
Cc1ncc(COP(=O)(O)O)c(C=O)c1O [PLP, Pyridoxal-5′-phosphate]	alleviated with a greater extent	most obvious signs of rescuing effect	–	–	–
O=C1NC(=O)C(c2ccccc2)(c2ccccc2)N1 [phenyloin]	–	–	alleviated with greater extent	most obvious signs of rescuing effect	–
